Common to all, as to type: biochemical
One assay concerns the target T1, TG3 (transglutaminase 3) (Homo sapiens, UniProt Q08188).
T1 construct: purchased Zedira T012
T1 sequence (Q08188 1-693): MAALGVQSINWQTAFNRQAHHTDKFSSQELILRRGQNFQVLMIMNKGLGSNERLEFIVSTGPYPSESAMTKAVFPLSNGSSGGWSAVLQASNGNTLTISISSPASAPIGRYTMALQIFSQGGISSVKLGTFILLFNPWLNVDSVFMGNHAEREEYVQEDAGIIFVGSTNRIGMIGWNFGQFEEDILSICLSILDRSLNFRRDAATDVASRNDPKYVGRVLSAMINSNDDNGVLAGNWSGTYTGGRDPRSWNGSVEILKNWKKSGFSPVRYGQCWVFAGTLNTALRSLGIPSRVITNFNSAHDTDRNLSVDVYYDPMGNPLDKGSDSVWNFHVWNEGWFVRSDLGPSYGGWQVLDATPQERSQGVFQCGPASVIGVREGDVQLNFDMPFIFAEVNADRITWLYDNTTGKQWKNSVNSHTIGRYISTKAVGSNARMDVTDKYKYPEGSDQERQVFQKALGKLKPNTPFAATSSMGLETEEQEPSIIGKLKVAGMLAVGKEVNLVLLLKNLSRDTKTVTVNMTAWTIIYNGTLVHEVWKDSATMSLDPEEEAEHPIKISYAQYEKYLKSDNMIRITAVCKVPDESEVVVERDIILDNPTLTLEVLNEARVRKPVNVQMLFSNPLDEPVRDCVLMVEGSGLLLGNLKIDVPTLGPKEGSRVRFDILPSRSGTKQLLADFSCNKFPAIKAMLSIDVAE
The assay is described as follows: Comparative transglutaminase selectivity assay with casein and dansylcadaverine as substrates: TG3. The note with it: casein as substrate. An excerpt: (§1) The comparative determination of different transglutaminases to determine the selectivity was made with casein and dansylcadaverine as substrates. Therefore, the kit T036 (Zedira, Darmstadt; Refs: Lorand et al, Anal Biochem, 1971, 44:221-31) as well as transglutaminase products T009 (transglutaminase 1), T012 (transglutaminase 3), T021 (transglutaminase 6) and T027 (plasma transglutaminase, factor XIII) are used. Therefore, two different IC50 values for the compounds are given.
(§2) The evaluation of the resulting enzyme activity is done using the slope of the straight line obtained by the increase in fluorescence.
(§3) To determine the non-inhibited enzyme activity, DMSO instead of inhibitor stock solution is used. IC50 values are determined by plotting the resulting enzyme activity against the logarithm of the inhibitor concentration. IC50 is defined as the concentration of inhibitor resulting in 50% of enzyme activity.
(§4) It should be noted that it was measured here against casein as substrate, which is why other apparent inhibition values (IC50 value) result.

Assay [1] addresses T2, FXIII (plasma transglutaminase, factor XIII) (Homo sapiens, UniProt P00488).
T2 construct: purchased Zedira T027
T2 sequence (P00488 1-732): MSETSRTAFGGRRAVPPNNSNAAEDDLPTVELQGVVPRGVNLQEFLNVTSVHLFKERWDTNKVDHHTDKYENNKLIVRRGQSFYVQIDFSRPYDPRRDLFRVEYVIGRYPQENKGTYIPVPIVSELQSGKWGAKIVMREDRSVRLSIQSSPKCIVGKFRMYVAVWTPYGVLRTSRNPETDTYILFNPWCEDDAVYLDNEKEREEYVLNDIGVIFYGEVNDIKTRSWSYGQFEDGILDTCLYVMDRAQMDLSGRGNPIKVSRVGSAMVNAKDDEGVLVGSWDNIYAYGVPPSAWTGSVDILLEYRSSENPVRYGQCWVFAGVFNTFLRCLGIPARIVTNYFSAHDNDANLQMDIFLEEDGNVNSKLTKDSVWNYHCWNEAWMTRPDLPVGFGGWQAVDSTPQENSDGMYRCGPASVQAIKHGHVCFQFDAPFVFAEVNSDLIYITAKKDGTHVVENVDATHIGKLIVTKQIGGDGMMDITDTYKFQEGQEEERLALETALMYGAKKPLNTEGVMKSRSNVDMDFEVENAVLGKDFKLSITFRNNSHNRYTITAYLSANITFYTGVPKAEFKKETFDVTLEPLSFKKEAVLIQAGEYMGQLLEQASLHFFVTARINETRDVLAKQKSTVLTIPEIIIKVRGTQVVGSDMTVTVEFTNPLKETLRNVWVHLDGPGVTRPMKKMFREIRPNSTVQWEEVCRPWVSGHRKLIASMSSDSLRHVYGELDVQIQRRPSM
In words: Comparative transglutaminase selectivity assay with casein and dansylcadaverine as substrates: FXIII. As to conditions: casein as substrate.
Text: as §1, §2, §3, §4

For assay [2], the target named is T3, tissue transglutaminase (TG2) (Homo sapiens, UniProt P21980).
T3 construct: purchased Zedira T036 (kit)
T3 sequence (P21980 1-687): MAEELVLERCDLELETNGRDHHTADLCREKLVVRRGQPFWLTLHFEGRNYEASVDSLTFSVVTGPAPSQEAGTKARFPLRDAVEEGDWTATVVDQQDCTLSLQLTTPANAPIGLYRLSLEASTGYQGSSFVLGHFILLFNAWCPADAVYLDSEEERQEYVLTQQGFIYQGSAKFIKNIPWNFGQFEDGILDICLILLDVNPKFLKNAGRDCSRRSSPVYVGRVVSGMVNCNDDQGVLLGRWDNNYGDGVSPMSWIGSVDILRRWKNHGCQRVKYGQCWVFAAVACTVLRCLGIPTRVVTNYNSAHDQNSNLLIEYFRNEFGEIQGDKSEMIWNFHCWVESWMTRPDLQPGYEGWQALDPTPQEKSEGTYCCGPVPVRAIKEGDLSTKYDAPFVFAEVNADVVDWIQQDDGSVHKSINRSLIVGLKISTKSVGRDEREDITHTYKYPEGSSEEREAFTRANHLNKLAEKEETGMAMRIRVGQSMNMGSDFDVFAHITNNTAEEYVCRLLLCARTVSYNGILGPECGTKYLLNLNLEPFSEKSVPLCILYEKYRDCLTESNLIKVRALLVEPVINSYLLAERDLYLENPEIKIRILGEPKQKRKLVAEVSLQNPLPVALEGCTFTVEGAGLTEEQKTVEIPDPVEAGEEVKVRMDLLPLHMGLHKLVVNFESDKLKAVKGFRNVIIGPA
In words: Comparative transglutaminase selectivity assay with casein and dansylcadaverine as substrates (kit T036): TG2. The note with it: casein as substrate (apparent IC50).
Text: as §1, §2, §3, §4

As for `CCOC(=O)/C=C/CC[C@H](NC(C)=O)C(=O)Nc1cccn(CC(=O)NCCC(C)C)c1=O` [A7, (S,E)-Ethyl 6-acetamido-7-(1-(2-(isopentylamino)-2-oxoethyl)-2-oxo-1,2-dihydropyridin-3-ylamino)-7-oxohept-2-enoate], the IC50 (usually the concentration at which inhibition is half-maximal) at TG3 (transglutaminase 3) was 84.1 µM; in assay [1] it was 105 µM; in assay [2] it was 3.6 µM.

Turning to `CCOC(=O)/C=C/CC[C@H](NC(C)=O)C(=O)Nc1cccn(CC(=O)N[C@H](C(=O)OC)[C@H](C)CC)c1=O` [A35, (S,E)-ethyl 6-acetamido-7-(1-(2-((2S,3R)-1-methoxy-3-methyl-1-oxopentan-2-ylamino)-2-oxoethyl)-2-oxo-1,2-dihydropyridin-3-ylamino)-7-oxohept-2-enoate], the 50% inhibitory concentration (IC50) on TG3 (transglutaminase 3) worked out at 95.8 µM; in assay [1], 70.7 µM; in assay [2], 1 µM.

Turning to `CC[C@@H](C)[C@H](NC(=O)Cn1cccc(NC(=O)[C@H](CC/C=C/C(=O)OC)NC(=O)c2ccccc2)c1=O)C(=O)O` [A61, (2S,3R)-2-(2-(3-((S,E)-2-benzamido-7-methoxy-7-oxohept-5-enamido)-2-oxopyridin-1(2H)-yl)acetamido)-3-methylpentanoic acid], the IC50 on TG3 (transglutaminase 3) came to 17.6 µM; in assay [1] it was 63.4 µM; in assay [2], 0.079 µM.
